Our source for the Solubility in water values is patent US20210059282A1, “Process for Spray Drying Fucosyllactose Solutions and Related Product Compositions” (DUPONT NUTRITION BIOSCIENCES APS, priority 2018, published 2021).

Molecules are shown by their SMILES.

The nature of the data set: Solubility in water at room temperature and pressure (general statement). In kind it is physicochemical.

With `CC1OC(OC2C(OC3C(CO)OC(O)C(O)C3O)OC(CO)C(O)C2O)C(O)C(O)C1O` (stereo not shown) [2′-FL, 2′-fucosyllactose], the Solubility in water result is listed as “soluble in water”.
